This passage reports EC50 results from patent US11661431B2, “Thienopyrrole compounds” (Gilead Sciences, Inc., priority 2021, dated 2023).

The structures appear in SMILES notation. Some results are limits rather than exact numbers.

The target of test [1] is TLR7 (Homo sapiens (Human), UniProt Q9NYK1). Nature of the test: TLR7 human peripheral blood mononuclear cell (PBMC) cell-based assay (GS-986 as agonist; IL-6 and IFNα readout). As to conditions: human PBMCs, TLR7 agonist GS-986 at 400 nM, 6 hours, antagonist potency; read-out: TLR-7 EC50. Summed up: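 IL-6 and IFNα released into supernatant were quantified by electrochemiluminescence immunoassay. Before that, human PBMCs at 100,000 per well received a 10-point antagonist titration for 1 h, then TLR7 agonist for 6 more hours, all at 37 °C, 5% CO2.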
Sequence of TLR7 (Q9NYK1 27-1049): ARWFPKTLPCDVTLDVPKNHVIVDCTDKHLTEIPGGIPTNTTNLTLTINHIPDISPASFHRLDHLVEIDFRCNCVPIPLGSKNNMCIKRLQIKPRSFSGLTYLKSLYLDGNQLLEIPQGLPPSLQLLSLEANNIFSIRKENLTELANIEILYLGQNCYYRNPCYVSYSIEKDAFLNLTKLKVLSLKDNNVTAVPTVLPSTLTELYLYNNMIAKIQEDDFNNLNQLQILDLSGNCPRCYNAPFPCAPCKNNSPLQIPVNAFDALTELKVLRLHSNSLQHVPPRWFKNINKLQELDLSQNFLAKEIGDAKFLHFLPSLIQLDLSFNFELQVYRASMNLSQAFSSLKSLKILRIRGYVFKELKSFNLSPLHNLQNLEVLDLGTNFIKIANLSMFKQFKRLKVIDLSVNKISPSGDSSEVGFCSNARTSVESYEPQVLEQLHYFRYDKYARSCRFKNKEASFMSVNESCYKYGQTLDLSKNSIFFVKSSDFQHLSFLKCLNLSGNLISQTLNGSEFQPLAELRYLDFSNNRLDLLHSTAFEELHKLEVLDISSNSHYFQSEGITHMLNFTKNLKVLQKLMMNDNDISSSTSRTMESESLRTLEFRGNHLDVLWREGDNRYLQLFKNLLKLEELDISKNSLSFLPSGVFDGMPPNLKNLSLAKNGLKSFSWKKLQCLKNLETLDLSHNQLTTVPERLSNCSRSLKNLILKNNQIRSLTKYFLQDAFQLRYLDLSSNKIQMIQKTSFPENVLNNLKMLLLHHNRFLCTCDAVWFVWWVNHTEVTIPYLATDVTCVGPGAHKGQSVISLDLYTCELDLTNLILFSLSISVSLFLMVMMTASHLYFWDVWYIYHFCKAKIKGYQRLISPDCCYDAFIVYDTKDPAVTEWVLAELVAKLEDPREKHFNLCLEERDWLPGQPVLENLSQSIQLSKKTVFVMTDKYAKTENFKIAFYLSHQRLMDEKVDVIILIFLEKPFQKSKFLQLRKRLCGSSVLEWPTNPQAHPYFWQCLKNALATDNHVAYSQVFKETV

Test [2] has as its target TLR8 (Homo sapiens (Human), UniProt Q9NR97). Nature of the test: TLR8 human peripheral blood mononuclear cell (PBMC) cell-based assay (Compound A as agonist; TNFα and IL12p40 readout). The following applies: human PBMCs, TLR8 agonist Compound A at 800 nM, 6 hours, antagonist potency; read-out: TLR-8 EC50.

Sequence of TLR8 (Q9NR97 27-1041): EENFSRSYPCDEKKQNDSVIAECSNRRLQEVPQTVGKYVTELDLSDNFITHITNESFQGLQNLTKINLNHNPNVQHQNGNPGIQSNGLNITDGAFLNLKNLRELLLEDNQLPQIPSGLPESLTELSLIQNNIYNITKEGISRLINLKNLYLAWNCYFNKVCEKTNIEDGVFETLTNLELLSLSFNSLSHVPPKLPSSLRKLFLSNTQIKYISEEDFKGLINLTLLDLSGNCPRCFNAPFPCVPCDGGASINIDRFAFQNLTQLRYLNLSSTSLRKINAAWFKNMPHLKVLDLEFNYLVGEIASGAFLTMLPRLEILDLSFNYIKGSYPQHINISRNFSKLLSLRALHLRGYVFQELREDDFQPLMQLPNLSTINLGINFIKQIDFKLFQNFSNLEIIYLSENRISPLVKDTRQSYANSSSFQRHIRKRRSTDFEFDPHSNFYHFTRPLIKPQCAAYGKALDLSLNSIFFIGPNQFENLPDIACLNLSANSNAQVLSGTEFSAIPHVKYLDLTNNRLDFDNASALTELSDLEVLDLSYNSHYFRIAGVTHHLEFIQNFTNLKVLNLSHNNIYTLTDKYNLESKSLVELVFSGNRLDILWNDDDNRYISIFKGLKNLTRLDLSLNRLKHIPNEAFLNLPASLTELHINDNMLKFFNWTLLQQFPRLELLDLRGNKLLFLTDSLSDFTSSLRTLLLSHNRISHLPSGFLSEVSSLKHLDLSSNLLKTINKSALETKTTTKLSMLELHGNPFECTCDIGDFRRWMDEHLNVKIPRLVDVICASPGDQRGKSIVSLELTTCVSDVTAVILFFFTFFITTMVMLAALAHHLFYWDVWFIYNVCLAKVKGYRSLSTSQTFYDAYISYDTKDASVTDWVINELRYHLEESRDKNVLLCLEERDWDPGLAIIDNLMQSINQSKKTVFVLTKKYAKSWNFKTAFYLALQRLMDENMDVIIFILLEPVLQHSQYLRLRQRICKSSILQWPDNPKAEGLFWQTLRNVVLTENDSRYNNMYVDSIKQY

As usually defined, the EC50 is the concentration giving half of the maximal effect. For `Cc1c(-c2[nH]c3sc([C@@H]4C[C@@H]5C[C@H]4CN5)c(C)c3c2C(C)C)cn2ncnc2c1C` [Example 72, 2-((1S,4R,5R)-2-azabicyclo[2.2.1]heptan-5-yl)-5-(7,8-dimethyl-[1,2,4]triazolo[1,5-a]pyridin-6-yl)-4-isopropyl-3-methyl-6H-thieno[2,3-b]pyrrole], the EC50 in test [1] worked out at 100 pM; in test [2] it was 110 pM.

In the case of `Cc1c(-c2[nH]c3sc(C4CCNCC4)c(C)c3c2C(C)C)cn2ncnc2c1C` [Example 73], the figures for the EC50 in test [1] and in test [2] were 100 pM and 4160 pM, respectively.

On to `Cc1c(-c2[nH]c3sc([C@H]4C[C@H]5C[C@@H]4CN5)c(C)c3c2C(C)C)cn2ncnc2c1C` [Example 74], for which the EC50 in test [1] stood at 50 pM; in test [2] it was 940 pM.

Turning to `Cc1c(-c2[nH]c3sc(C4CC5(CNCCO5)C4)c(C)c3c2C(C)C)cn2ncnc2c1C` (stereo not shown) [Example 76, 2-(5-(7,8-dimethyl-[1,2,4]triazolo[1,5-a]pyridin-6-yl)-4-isopropyl-3-methyl-6H-thieno[2,3-b]pyrrol-2-yl)-5-oxa-8-azaspiro[3.5]nonane], the 50% effective concentration (EC50) in test [1] is 50 pM; in test [2] it was 240 pM.

With `Cc1c(-c2[nH]c3sc(C45CCNCC4C5)c(C)c3c2C(C)C)cn2ncnc2c1C` (stereo not shown) [Example 77, 2-(3-azabicyclo[4.1.0]heptan-6-yl)-5-(7,8-dimethyl-[1,2,4]triazolo[1,5-a]pyridin-6-yl)-4-isopropyl-3-methyl-6H-thieno[2,3-b]pyrrole], the EC50 stood at 90 pM in test [1] and 2890 pM in test [2].

Turning to `Cc1c(-c2[nH]c3sc(C4COC5(CCNCC5)C4)c(C)c3c2C(C)C)cn2ncnc2c1C` (stereo not shown) [Example 78, 3-(5-(7,8-dimethyl-[1,2,4]triazolo[1,5-a]pyridin-6-yl)-4-isopropyl-3-methyl-6H-thieno[2,3-b]pyrrol-2-yl)-1-oxa-8-azaspiro[4.5]decane], the EC50 came to 420 pM in test [1] and 5440 pM in test [2].

Regarding `Cc1c(-c2[nH]c3sc(C4COC5(CCN(CC(N)=O)CC5)C4)c(C)c3c2C(C)C)cn2ncnc2c1C` (stereo not shown) [Example 80], the EC50 amounted to 2150 pM in test [1] and 15200 pM in test [2].

As to `Cc1c(-c2[nH]c3sc([C@@H]4C[C@@H]5C[C@H]4CN5C(C)C(N)=O)c(C)c3c2C(C)C)cn2ncnc2c1C` (stereo partly shown) [Example 81], the EC50 in test [1] turned out to be 190 pM; in test [2] it was 450 pM.

As to `Cc1c(-c2[nH]c3sc([C@@H]4C[C@@H]5C[C@H]4CN5CCS(C)(=O)=O)c(C)c3c2C(C)C)cn2ncnc2c1C` [Example 83], the EC50 in test [1] came to 450 pM; in test [2], 610 pM.

Take `Cc1c(-c2[nH]c3sc(C4CCN(C(=O)[C@@H]5COCCN5)CC4)c(C)c3c2C(C)C)cn2ncnc2c1C` [Example 92]: the EC50 in test [1] was determined as 1940 pM; in test [2], 2670 pM.

As for `Cc1c(-c2[nH]c3sc(C45CCN(CC(N)=O)CC4C5)c(C)c3c2C(C)C)cn2ncnc2c1C` (stereo not shown) [Example 93], the EC50 in test [1] was determined as 1360 pM; in test [2] it was 18400 pM.

As to `Cc1c(-c2[nH]c3sc(C4CCN(C(=O)[C@H]5C[C@@]6(CNCCO6)C5)CC4)c(C)c3c2C(C)C)cn2ncnc2c1C` [Example 94, [4-[5-(7,8-dimethyl-[1,2,4]triazolo[1,5-a]pyridin-6-yl)-4-isopropyl-3-methyl-6H-thieno[2,3-b]pyrrol-2-yl]-1-piperidyl]-(5-oxa-8-azaspiro[3.5]nonan-2-yl)methanone], the EC50 in test [1] was determined as 50 pM; in test [2], 2300 pM.

`Cc1c(-c2[nH]c3sc(C4CCN(C(=O)[C@@H]5CCCN5)CC4)c(C)c3c2C(C)C)cn2ncnc2c1C` [Example 99]: the half-maximal effective concentration (EC50) in test [1] was 430 pM; in test [2], 5960 pM.

Turning to `Cc1c(-c2[nH]c3sc(C4CCN(C(=O)[C@H]5CN6CCCC6CO5)CC4)c(C)c3c2C(C)C)cn2ncnc2c1C` (stereo partly shown) [Example 104], the EC50 in test [1] came to 100 pM; in test [2] it was 2490 pM.

Regarding `Cc1c(-c2[nH]c3sc(C4CCN(C(=O)C5CN6CC7CC6(CO5)C7)CC4)c(C)c3c2C(C)C)cn2ncnc2c1C` (stereo not shown) [Example 105], the EC50 in test [1] is < 50 pM; in test [2] it was 4170 pM.

Consider `Cc1c(-c2[nH]c3sc(C4CCN(C(=O)C5(N)COC5)CC4)c(C)c3c2C(C)C)cn2ncnc2c1C` [Example 106], for which the EC50 is 340 pM in test [1] and 49300 pM in test [2].

In the case of `Cc1c(-c2[nH]c3sc(C4CCN(C(=O)C56COC(CN5)C6)CC4)c(C)c3c2C(C)C)cn2ncnc2c1C` (stereo not shown) [Example 107], the EC50 in test [1] was < 50 pM; in test [2], 6790 pM.

For the compound `Cc1c(-c2[nH]c3sc(C4CCN(C(=O)C56CCC(CN5)OC6)CC4)c(C)c3c2C(C)C)cn2ncnc2c1C` (stereo not shown) [Example 108], the EC50 in test [1] is 200 pM; in test [2] it was 4770 pM.

`Cc1c(-c2[nH]c3sc(C4CCN(C(=O)[C@@H]5CNCCO5)CC4)c(C)c3c2C(C)C)cn2ncnc2c1C` [Example 109]: the EC50 in test [1] was < 50 pM; in test [2] it was 3450 pM.

`Cc1c(-c2[nH]c3sc(C4CCN(C(=O)[C@H]5CNCCO5)CC4)c(C)c3c2C(C)C)cn2ncnc2c1C` [Example 110]: the values for the EC50 in test [1] and in test [2] were 90 pM and 6210 pM, respectively.

Regarding `Cc1c(-c2[nH]c3sc(-c4ccc(C5CCNCC5)cc4)c(C)c3c2C(C)C)cn2ncnc2c1C` [Example 111], the results for the concentration giving a half-maximal response (EC50) in test [1] and in test [2] were 450 pM and 6580 pM, respectively.

Consider `Cc1c(-c2[nH]c3sc(C4C[C@@H]5CN[C@H]4C5)c(C)c3c2C(C)C)cn2ncnc2c1C` (stereo partly shown) [Example 112], for which the EC50 in test [1] was found to be 70 pM; in test [2], 500 pM.

Regarding `Cc1c(-c2[nH]c3sc(-c4ccc(C5CCN(CC(N)=O)CC5)cc4)c(C)c3c2C(C)C)cn2ncnc2c1C` [Example 113], the EC50 in test [1] was found to be 540 pM; in test [2], 9800 pM.

For `Cc1c(-c2[nH]c3sc(C4C[C@H]5C[C@@H]4N(CC(N)=O)C5)c(C)c3c2C(C)C)cn2ncnc2c1C` (stereo partly shown) [Example 114], the EC50 was 440 pM in test [1] and 2710 pM in test [2].

As to `Cc1c(-c2[nH]c3sc(-c4ccc(C5CNCCO5)cc4)c(C)c3c2C(C)C)cn2ncnc2c1C` (stereo not shown) [Example 115], the EC50 in test [1] came out at 240 pM; in test [2] it was 9380 pM.

Turning to `Cc1c(C2CCN(C(=O)C3(N4CCOCC4)CC3)CC2)sc2[nH]c(-c3cc(C)c4ncnn4c3)c(C(C)C)c12` [Example 116], the EC50 in test [1] worked out at 390 pM; in test [2], 27400 pM.

Take `Cc1c(C2CCN(C(=O)[C@@H]3C[C@@H](F)CN3)CC2)sc2[nH]c(-c3cc(C)c4ncnn4c3)c(C(C)C)c12` [Example 117]: the EC50 is 520 pM in test [1] and 16600 pM in test [2].

Consider `Cc1c(C2CCN(C(=O)[C@@H]3C[C@H](F)CN3)CC2)sc2[nH]c(-c3cc(C)c4ncnn4c3)c(C(C)C)c12` [Example 118], for which the figures for the EC50 in test [1] and in test [2] were 240 pM and 15200 pM, respectively.

For `Cc1nnc(CN2C[C@@H]3C[C@H]2C[C@H]3c2sc3[nH]c(-c4cn5ncnc5c(C)c4C)c(C(C)C)c3c2C)o1` [Example 119], the EC50 in test [1] stood at 340 pM; in test [2], 4550 pM.

`Cc1noc(C)c1CN1C[C@@H]2C[C@H]1C[C@H]2c1sc2[nH]c(-c3cn4ncnc4c(C)c3C)c(C(C)C)c2c1C` [Example 120]: the EC50 in test [1] is 90 pM; in test [2], 1100 pM.

For `Cc1nc2c(C)cc(-c3[nH]c4sc([C@@H]5C[C@@H]6C[C@H]5CN6CC(N)=O)c(C)c4c3C(C)C)cn2n1` [Example 121], the EC50 in test [1] is < 50 pM; in test [2], 130 pM.

Regarding `Cc1c(C2CCC3(C2)CN(CC(N)=O)C3)sc2[nH]c(-c3cc(C)c4ncnn4c3)c(C(C)C)c12` (stereo not shown) [Example 122], the values for the EC50 in test [1] and in test [2] were 380 pM and 1630 pM, respectively.

Consider `Cc1c(C2CC3(CCNCC3)C2)sc2[nH]c(-c3cc(C)c4ncnn4c3)c(C(C)C)c12` [Example 123], for which the EC50 in test [1] was 160 pM; in test [2], 2150 pM.

For `Cc1c(C2CC3(CCN(CC(N)=O)CC3)C2)sc2[nH]c(-c3cc(C)c4ncnn4c3)c(C(C)C)c12` [Example 124], the EC50 was 300 pM in test [1] and 3220 pM in test [2].

Take `Cc1cc(-c2[nH]c3sc([C@H]4C[C@@]5(CCNC5)C4)c(C)c3c2C(C)C)cn2ncnc12` [Example 125]: the EC50 in test [1] is 330 pM; in test [2], 1500 pM.

Turning to `Cc1cc(-c2[nH]c3sc([C@H]4C[C@@]5(CCN(CC(N)=O)C5)C4)c(C)c3c2C(C)C)cn2ncnc12` [Example 126], the EC50 in test [1] was 240 pM; in test [2], 1740 pM.

Turning to `Cc1c(C2CCNC2)sc2[nH]c(-c3cc(C)c4ncnn4c3)c(C(C)C)c12` (stereo not shown) [Example 127], the half-maximal effective concentration (EC50) is 210 pM in test [1] and 1520 pM in test [2].

As to `Cc1c(C2CCC3(CCNCC3)C2)sc2[nH]c(-c3cc(C)c4ncnn4c3)c(C(C)C)c12` (stereo not shown) [Example 129], the EC50 in test [1] is 270 pM; in test [2], 10700 pM.

Regarding `Cc1nc2c(C)cc(-c3[nH]c4sc(C5CCNCC5)c(C)c4c3C(C)C)cn2n1` [Example 131], the EC50 in test [1] came to 120 pM; in test [2], 6920 pM.

Regarding `Cc1cc(-c2[nH]c3sc([C@H]4C[C@]5(CCN(CC(N)=O)C5)C4)c(C)c3c2C(C)C)cn2ncnc12` [Example 132], the EC50 in test [1] worked out at 100 pM; in test [2], 540 pM.

Take `Cc1c(C2CCC3(CCN(CC(N)=O)CC3)C2)sc2[nH]c(-c3cc(C)c4ncnn4c3)c(C(C)C)c12` (stereo not shown) [Example 133]: the results for the concentration giving a half-maximal response (EC50) in test [1] and in test [2] were 600 pM and 5060 pM, respectively.

For `Cc1nc2c(C)cc(-c3[nH]c4sc(C5CCN(CC(N)=O)CC5)c(C)c4c3C(C)C)cn2n1` [Example 134], the figures for the EC50 in test [1] and in test [2] were 740 pM and 12600 pM, respectively.

For `Cc1nc2c(C)cc(-c3[nH]c4sc(C5CCN(C(=O)[C@H]6COCCN6)CC5)c(C)c4c3C(C)C)cn2n1` [Example 135], the EC50 in test [1] was 280 pM; in test [2] it was 27000 pM.

Regarding `Cc1nc2c(C)cc(-c3[nH]c4sc(C5CCN(C(=O)[C@@H]6COCCN6)CC5)c(C)c4c3C(C)C)cn2n1` [Example 136], the EC50 in test [1] turned out to be 680 pM; in test [2], 17900 pM.
